Data on 68 sequences can be found in the supplement of paper PMC11208160.
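Further: IS621 bridge recombinase in Escherichia coli cells against a fixed T5 target plasmid.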

A short description of the data set: recombinant UMI read abundance after kanamycin selection (control-corrected) (log10(CPM+1)); higher = more efficient recombination; extreme values may be limits of the assay; sequences stand for … in AGTGCAGAGAAAATCGGCCAGTTTTCTCTGCCTGCAGTCCGCATGCCGTGGGACCCCTTGGGTTCTAACCTGTTGCCTAGATTTATGCAGCGGACTGCCTTTCTCCCAAAGTGATAAACCGG…AGGTTGGTTTCACT; site = the 11-nt donor. The method, boiled down:
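Counts of recombinant UMIs were reported as log10(CPM+1). Before that, they were converted to CPM, averaged over replicates and scaled using control-derived factors. They came from PCR across the donor–target junction after Escherichia coli carrying the pair library and target plasmid was plated on IPTG (0.07 mM) plus kanamycin, or unselected, in two replicates each.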
Regarding “CAAGCGCCATGGACCGGTTTTCCCGGTAATCCGTATTTGGG (site CAAGCGCCTCC)”, the “recombinant UMI read abundance (log10)” value was found to be 0.0155.

With “CAAGCGCCATGGACCGGTTTTCCCGGTAATCCGTATTTGGG (site CAAGCGCCTCG)”, the “recombinant UMI read abundance (log10)” value turned out to be 0.0252. In the case of “CAAGCGCCATGGACCGGTTTTCCCGGTAATCCGTATTTGGG (site CAAGCGCCTCT)” it was 0.0195. The value for “CAAGCGCCATGGACCGGTTTTCCCGGTAATCCGTATTTGTG (site AAAGCGCCTCA)” was 0.0176. In the case of “CAAGCGCCATGGACCGGTTTTCCCGGTAATCCGTATTTGTG (site CAAACGCCTCA)” it was 0.0285; in that of “CAAGCGCCATGGACCGGTTTTCCCGGTAATCCGTATTTGTG (site CAACCGCCTCA)”, 0.0221. For “CAAGCGCCATGGACCGGTTTTCCCGGTAATCCGTATTTGTG (site CAAGAGCCTCA)”, the “recombinant UMI read abundance (log10)” value is 0.0105. The value for “CAAGCGCCATGGACCGGTTTTCCCGGTAATCCGTATTTGTG (site CAAGCACCTCA)” was 0.0231; that for “CAAGCGCCATGGACCGGTTTTCCCGGTAATCCGTATTTGTG (site CAAGCCCCTCA)” was 0.0168; that for “CAAGCGCCATGGACCGGTTTTCCCGGTAATCCGTATTTGTG (site CAAGCGACTCA)” was 0.0185.

Take “CAAGCGCCATGGACCGGTTTTCCCGGTAATCCGTATTTGTG (site CAAGCGCCTAA)”: the “recombinant UMI read abundance (log10)” value came out at 0.00762. The value for “CAAGCGCCATGGACCGGTTTTCCCGGTAATCCGTATTTGTG (site CAAGCGCCTCA)” was 0.0111; that for “CAAGCGCCATGGACCGGTTTTCCCGGTAATCCGTATTTGTG (site CAAGCGCCTCC)” was 0.0342. In the case of “CAAGCGCCATGGACCGGTTTTCCCGGTAATCCGTATTTGTG (site CAAGCGCCTCG)” it was 1.36.

For the sequence “CAAGCGCCATGGACCGGTTTTCCCGGTAATCCGTATTTGTG (site CAAGCGCCTCT)”, the “recombinant UMI read abundance (log10)” value was determined as 0.218. The value for “CAAGCGCCATGGACCGGTTTTCCCGGTAATCCGTATTTGTG (site CAAGCGCCTGA)” was 0.706; that for “CAAGCGCCATGGACCGGTTTTCCCGGTAATCCGTATTTGTG (site CAAGCGCCTTA)” was 0.627. The value for “CAAGCGCCATGGACCGGTTTTCCCGGTAATCCGTATTTGTG (site CAAGCGGCTCA)” was 0.00842. The value for “CAAGCGCCATGGACCGGTTTTCCCGGTAATCCGTATTTGTG (site CAAGCGTCTCA)” was 1.85; that for “CAAGCGCCATGGACCGGTTTTCCCGGTAATCCGTATTTGTG (site CAAGCTCCTCA)” was 0.185. For the sequence “CAAGCGCCATGGACCGGTTTTCCCGGTAATCCGTATTTGTG (site CAAGGGCCTCA)”, the “recombinant UMI read abundance (log10)” value is 0.0216.

With “CAAGCGCCATGGACCGGTTTTCCCGGTAATCCGTATTTGTG (site CAAGTGCCTCA)”, the “recombinant UMI read abundance (log10)” value was determined as 0.0157.

With “CAAGCGCCATGGACCGGTTTTCCCGGTAATCCGTATTTGTG (site CAATCGCCTCA)”, the “recombinant UMI read abundance (log10)” value was determined as 0.0117.

In the case of “CAAGCGCCATGGACCGGTTTTCCCGGTAATCCGTATTTGTG (site CACGCGCCTCA)”, the “recombinant UMI read abundance (log10)” value is 0.0238. The value for “CAAGCGCCATGGACCGGTTTTCCCGGTAATCCGTATTTGTG (site CAGGCGCCTCA)” was 0.0473; that for “CAAGCGCCATGGACCGGTTTTCCCGGTAATCCGTATTTGTG (site CATGCGCCTCA)” was 0.047.

For “CAAGCGCCATGGACCGGTTTTCCCGGTAATCCGTATTTGTG (site CCAGCGCCTCA)”, the “recombinant UMI read abundance (log10)” value came to 0.00697. In the case of “CAAGCGCCATGGACCGGTTTTCCCGGTAATCCGTATTTGTG (site CGAGCGCCTCA)” it was 0.0092; in that of “CAAGCGCCATGGACCGGTTTTCCCGGTAATCCGTATTTGTG (site CTAGCGCCTCA)”, 0.0166; in that of “CAAGCGCCATGGACCGGTTTTCCCGGTAATCCGTATTTGTG (site GAAGCGCCTCA)”, 0.0137. The value for “CAAGCGCCATGGACCGGTTTTCCCGGTAATCCGTATTTGTG (site TAAGCGCCTCA)” was 0.0306; that for “CAAGCGGCATGGACCGGTTTTCCCGGTAATCCGTATTTGCT (site CAAGCAGCTAG)” was 0.584. The value for “CAAGCGGCATGGACCGGTTTTCCCGGTAATCCGTATTTGCT (site CAAGCCGCTAG)” was 0. As to “CAAGCGGCATGGACCGGTTTTCCCGGTAATCCGTATTTGCT (site CAAGCGGCTAG)”, the “recombinant UMI read abundance (log10)” value worked out at 1.72. The value for “CAAGCGGCATGGACCGGTTTTCCCGGTAATCCGTATTTGCT (site CAAGCTGCTAG)” was 0; that for “CAAGCTGCATGGACCGGTTTTCCCGGTAATCCGTATTTGGG (site CAAGCTGCTCC)” was 0.0432; that for “CAAGGACCATGGACCGGTTTTCCCGGTAATCCGTATTTGGG (site CAAGGACCTCC)” was 0.

For “CAAGGACCATGGACCGGTTTTCCCGGTAATCCGTATTTGGG (site CCAGGACCTCC)”, the “recombinant UMI read abundance (log10)” value was determined as 0.0136. In the case of “CAAGGACCATGGACCGGTTTTCCCGGTAATCCGTATTTGGG (site CGAGGACCTCC)” it was 0.0074; in that of “CAAGGACCATGGACCGGTTTTCCCGGTAATCCGTATTTGGG (site CTAGGACCTCC)”, 0.0255; in that of “CAAGGCACATGGACCGGTTTTCCCGGTAATCCGTATTTGGG (site CAAGACACTCC)”, 0.00686. The value for “CAAGGCACATGGACCGGTTTTCCCGGTAATCCGTATTTGGG (site CAAGCCACTCC)” was 0.0196. In the case of “CAAGGCACATGGACCGGTTTTCCCGGTAATCCGTATTTGGG (site CAAGGCACTCC)” it was 0.0216; in that of “CAAGGCACATGGACCGGTTTTCCCGGTAATCCGTATTTGGG (site CAAGTCACTCC)”, 0.397; in that of “CAAGGCCCATGGACCGGTTTTCCCGGTAATCCGTATTTGTT (site CAAGGCCCTAA)”, 0.0195. Regarding “CAAGGCCCATGGACCGGTTTTCCCGGTAATCCGTATTTGTT (site CACGGCCCTAA)”, the “recombinant UMI read abundance (log10)” value turned out to be 0.0285. The value for “CAAGGCCCATGGACCGGTTTTCCCGGTAATCCGTATTTGTT (site CAGGGCCCTAA)” was 0.0144; that for “CAAGGCCCATGGACCGGTTTTCCCGGTAATCCGTATTTGTT (site CATGGCCCTAA)” was 0.0187. Consider “CAAGGCGCATGGACCGGTTTTCCCGGTAATCCGTATTTGGA (site CAAGGCGCTTC)”, for which the “recombinant UMI read abundance (log10)” value stood at 1.42. The value for “CAAGGGCCATGGACCGGTTTTCCCGGTAATCCGTATTTGTG (site CAAGAGCCTCA)” was 0.431; that for “CAAGGGCCATGGACCGGTTTTCCCGGTAATCCGTATTTGTG (site CAAGCGCCTCA)” was 0.0177; that for “CAAGGGCCATGGACCGGTTTTCCCGGTAATCCGTATTTGTG (site CAAGGGCCTCA)” was 0.314. The value for “CAAGGGCCATGGACCGGTTTTCCCGGTAATCCGTATTTGTG (site CAAGTGCCTCA)” was 0.115; that for “CAAGGGGCATGGACCGGTTTTCCCGGTAATCCGTATTTGTT (site CAAGGGGCTAA)” was 2.43; that for “CAAGGTGCATGGACCGGTTTTCCCGGTAATCCGTATTTGAT (site CAAGGTGCTAT)” was 2.52. As for “CAAGGTGCATGGACCGGTTTTCCCGGTAATCCGTATTTGAT (site CCAGGTGCTAT)”, the “recombinant UMI read abundance (log10)” value is 0.8.

In the case of “CAAGGTGCATGGACCGGTTTTCCCGGTAATCCGTATTTGAT (site CGAGGTGCTAT)”, the “recombinant UMI read abundance (log10)” value was 1.13. Consider “CAAGGTGCATGGACCGGTTTTCCCGGTAATCCGTATTTGAT (site CTAGGTGCTAT)”, for which the “recombinant UMI read abundance (log10)” value is 1.67. The value for “CAAGTAGCATGGACCGGTTTTCCCGGTAATCCGTATTTGCT (site CAAGAAGCTAG)” was 0; that for “CAAGTAGCATGGACCGGTTTTCCCGGTAATCCGTATTTGCT (site CAAGCAGCTAG)” was 0.378; that for “CAAGTAGCATGGACCGGTTTTCCCGGTAATCCGTATTTGCT (site CAAGGAGCTAG)” was 0.0678. The value for “CAAGTAGCATGGACCGGTTTTCCCGGTAATCCGTATTTGCT (site CAAGTAGCTAG)” was 1.66; that for “CAAGTATCATGGACCGGTTTTCCCGGTAATCCGTATTTGAG (site CAAGTATCTCT)” was 3.07.

Take “CAAGTATCATGGACCGGTTTTCCCGGTAATCCGTATTTGAG (site CTAGTATCTGT)”: the “recombinant UMI read abundance (log10)” value turned out to be 0. The value for “CAAGTCACATGGACCGGTTTTCCCGGTAATCCGTATTTGGA (site CAAGTCACTAC)” was 0.358; that for “CAAGTCACATGGACCGGTTTTCCCGGTAATCCGTATTTGGA (site CAAGTCACTCC)” was 0.638. The value for “CAAGTCACATGGACCGGTTTTCCCGGTAATCCGTATTTGGA (site CAAGTCACTGC)” was 0.803; that for “CAAGTCACATGGACCGGTTTTCCCGGTAATCCGTATTTGGA (site CAAGTCACTTC)” was 2.03.
